Laboratory results: patent US11299519B2, “Host cells and methods using a repressor polypeptide and an inducible promoter for gene expression” (The Regents of the University of California, priority 2015, dated 2022)

Legend:
p1-promoter = experiment: RFP expression from the p1-promoter in various bacteria; format: cell-based, Three different gram-negative bacteria; conditions: same plasmid in all strains (BBR origin of replication)
Text: All strains contain the same plasmid (BBR origin of replication).
The functionality of Eil-promoters is not restricted to E. coli and offers an expression platform in various host organisms. […] In addition to bacterial promoters, the eil operators can be used to control expression from phage promoters such as T7. […] RFP was expressed from a T7 promoter controlled either by an IPTG-inducible lac operator or an acridine orange-inducible eil operator. The chromosomal T7-RNA polymerase was expressed from a Lac-promoter in both cases (in E. coli BL21-DE3). In the future, T7 RNA-polymerase expression could also be controlled by an Eil-promoter. […] All strains contain the same plasmid (BBR origin of replication).

Eil-promoter = experiment: Induction of Eil-promoter (EilR-regulated, reporter gene) by hydrophobic cations; format: cell-based, E. coli; conditions: preliminary results for the leuco-form
Text: A series of EilR-regulated promoters have been identified by creating a library that contains an eil-operator and randomized core promoter sequences coupled to a reporter gene. […] Subsequent optimizations have led to several Eil-promoters with improved properties.
The Eil- or Qac-promoters are useful as tools for monitoring real time oxidative stress. […] An Eil-promoter or Qac-promoter coupled with a reporter gene can serve as a signal-amplifying sensor for real time in vivo oxidative stress, which could be useful to monitor and understand physiological stress reactions. Similarly, heme catalyzes the oxidation of the colorless leucocrystal violet to its purple cation by reducing hydrogen peroxide. This colorful radical reaction is utilized in forensics to uncover removed blood stains. Crystal violet induces Eil-biosensors at concentrations that are much lower than the eye can detect. Such a sensor could be a sensitive tool for blood detection in forensic analyses.
Numbers in brackets indicate the concentration applied for induction (in μM).

KmrR = experiment: RFP expression from an Eil-promoter regulated by EilR homologue KmrR; format: cell-based, Klebsiella BRL6-2; conditions: in E. coli; eilO consensus operator
Text: (§1) The EilR homologues SmvR (from Salmonella typhimurium) and KmrR (from Klebsiella BRL6-2) regulate RFP expression from an Eil-promoter in E. coli. Like EilR, these repressors bind to the eilO consensus operator and are induced e.g. by crystal violet.

SmvR = experiment: RFP expression from an Eil-promoter regulated by EilR homologue SmvR; format: cell-based, Salmonella typhimurium; conditions: in E. coli; eilO consensus operator
Text: as §1

SMILES | RFP expression from the p1-promoter on induction (p1-promoter) | induction of Eil-promoters (Eil-promoter) | induction of KmrR-regulated RFP expression from an Eil-promoter (KmrR) | induction of SmvR-regulated RFP expression from an Eil-promoter (SmvR)
CN(C)c1ccc2cc3ccc(N(C)C)cc3nc2c1 [acridine orange] | express RFP from the p1-promoter | – | – | –
CN(C)c1ccc(C(=C2C=CC(=[N+](C)C)C=C2)c2ccc(N(C)C)cc2)cc1 [crystal violet] | – | induces Eil-promoters at nanomolar concentrations | induced | induced
CN(C)c1ccc(C(c2ccc(N(C)C)cc2)c2ccc(N(C)C)cc2)cc1 [leucocrystal violet] | – | does not cause induction | – | –
